Results from PMC2364994, “Complexes With Biologically Active Ligands. Part 1. Synthesis of Coordination Compounds of Diazoxide With Transition- and Main-Group Cations” (Metal-Based Drugs, 1996).

What was measured:
[1] = molecular target: T1, Bovine CA II (Bos taurus, UniProt P00921); assay: Maren's micromethod, CO2 hydration; format: biochemical; conditions: 0 °C, veronal buffer; E-I technique; unit shows as (M) in the extracted table, text says micromolar range
T1 construct: gene CA2; commercial enzyme (Sigma Chemical Co.); isozyme described as erythrocyte CA

[2] = molecular target: T2, human CA I (Homo sapiens, UniProt P00915); assay: Maren's micromethod, CO2 hydration; format: biochemical; conditions: 0 °C, veronal buffer; E-I technique; unit shows as (M) in the extracted table, text says micromolar range
T2 construct: gene CA1; commercial enzyme (Sigma Chemical Co.); isozyme described as erythrocyte CA
T2 sequence (P00915 2-261): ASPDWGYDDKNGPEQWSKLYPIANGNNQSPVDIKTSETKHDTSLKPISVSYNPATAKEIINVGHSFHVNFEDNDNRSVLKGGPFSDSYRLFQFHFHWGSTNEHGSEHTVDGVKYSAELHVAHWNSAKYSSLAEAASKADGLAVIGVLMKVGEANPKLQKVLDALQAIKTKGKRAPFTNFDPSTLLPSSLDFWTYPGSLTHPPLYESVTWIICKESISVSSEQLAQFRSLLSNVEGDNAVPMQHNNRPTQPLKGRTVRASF

T1 sequence (P00921 2-260): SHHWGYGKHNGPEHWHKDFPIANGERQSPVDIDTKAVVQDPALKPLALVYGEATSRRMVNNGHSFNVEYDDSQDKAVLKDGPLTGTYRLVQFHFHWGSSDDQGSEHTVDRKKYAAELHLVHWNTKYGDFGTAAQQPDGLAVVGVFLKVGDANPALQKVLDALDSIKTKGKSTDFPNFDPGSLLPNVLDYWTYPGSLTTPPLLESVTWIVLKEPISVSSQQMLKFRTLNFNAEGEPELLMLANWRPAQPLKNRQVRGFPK

[PDZO)(OH)a].2HO [compound 14] gave an IC50 [1] of 6e-05 M and an IC50 [2] of 7.2e-05 M.
[VO(DZO)(OH)].HO [compound 17] showed an IC50 [1] of 0.000125 M and an IC50 [2] of 0.000105 M.
